Data published in US20250011826A1, “mRNA CAP ANALOGUE AND USE THEREOF” (HANMI FINE CHEMICAL CO., LTD., priority 2021, published 2025).

Assays:
T7 RNA polymerase = T7 RNA polymerase (Escherichia phage T7, UniProt P00573); assay: In vitro transcription of luciferase mRNA by co-transcriptional capping (IVT yield); assay type: biochemical; details: 8 mM cap analog, luciferase DNA template, 37° C. 2 to 3 hours; compared with Cleancap AG(3′OMe) designated as 100%; FIG. 4
Description: For the mRNA synthesis reaction using the compounds prepared in Example 15 and Example 16 above, a transcription buffer was used, and the composition of the buffer was Tris-Cl buffer: spermidine:Triton X=4:2:1 volume ratio. In the buffer, 50 μg/ml luciferase DNA transcription template, 10 mM ATP, 10 mM CTP, 10 mM UTP, 2 mM GTP, and 8 mM compound prepared in Example 15 or Example 16, 300 KU/ml T7 RNA polymerase, 2 KU/ml RNase inhibitor protein, 20 U/ml inorganic pyrophosphatase, 40 mM Tris-HCl (pH 8.0), 50 mM magnesium chloride, and 10 mM dithiothreitol were added to prepare the transcription reaction mixture. […] The concentration of the purified mRNA sample was determined using a fluorometer instrument, and the total amount of mRNA was calculated by multiplying the concentration and reaction volume. Then, in order to derive the mRNA in vitro transcription (IVT) yield, the total amount of mRNA synthesized using each different cap analog was divided by the input L-DNA content to quantify the IVT yield value according to the cap analog. […] This may be calculated using [Equation 1] below. […]

HeLa cells = assay: Translation of luciferase mRNA in HeLa cells (luciferase activity after transfection of capped mRNA); assay type: cell-based
Description: The translational activity of the mRNAs generated by the IVT reactions of each Example 15, Example 16, and ^7mG(3OMe)pppA(2′OMe)pG was evaluated by transfecting the corresponding mRNAs into the HeLa cell line. All mRNAs synthesized through IVT reaction before transfection were subjected to poly(A) tailing process. Specifically, IVT mRNA, whose mRNA synthesis reaction was terminated by adding DNase 1, was mixed with IVT mRNA:10× poly (A) polymerase reaction buffer:10 mM ATP solution:poly (A) polymerase enzyme (4 KU/ml):nuclease-free water=20:10:10:2:58 ratio (volume/volume), reacted at 37° C. for 30 minutes to 1 hour, and then incubated at 4° C. to terminate the reaction. […] Cells were harvested 6, 12, and 24 hours after transfection, and luciferase activity was measured using Renilla-Glo™ Luciferase Assay kit (Promega catalog #E2710) according to the manufacturer's recommendations: After removing the medium from the transfected cells, 50 μl phosphate buffer solution (PBS) was added. Afterwards, 50 μl of Renilla-Glo™ Luciferase Assay reagent was added, mixed, and incubated for 10 minutes, and then luciferase activity was detected using Varioskan LUX Multimode Microplate Reader (Thermo Fisher) (FIG. 5). […]

Sequence of T7 RNA polymerase (P00573 whole entry): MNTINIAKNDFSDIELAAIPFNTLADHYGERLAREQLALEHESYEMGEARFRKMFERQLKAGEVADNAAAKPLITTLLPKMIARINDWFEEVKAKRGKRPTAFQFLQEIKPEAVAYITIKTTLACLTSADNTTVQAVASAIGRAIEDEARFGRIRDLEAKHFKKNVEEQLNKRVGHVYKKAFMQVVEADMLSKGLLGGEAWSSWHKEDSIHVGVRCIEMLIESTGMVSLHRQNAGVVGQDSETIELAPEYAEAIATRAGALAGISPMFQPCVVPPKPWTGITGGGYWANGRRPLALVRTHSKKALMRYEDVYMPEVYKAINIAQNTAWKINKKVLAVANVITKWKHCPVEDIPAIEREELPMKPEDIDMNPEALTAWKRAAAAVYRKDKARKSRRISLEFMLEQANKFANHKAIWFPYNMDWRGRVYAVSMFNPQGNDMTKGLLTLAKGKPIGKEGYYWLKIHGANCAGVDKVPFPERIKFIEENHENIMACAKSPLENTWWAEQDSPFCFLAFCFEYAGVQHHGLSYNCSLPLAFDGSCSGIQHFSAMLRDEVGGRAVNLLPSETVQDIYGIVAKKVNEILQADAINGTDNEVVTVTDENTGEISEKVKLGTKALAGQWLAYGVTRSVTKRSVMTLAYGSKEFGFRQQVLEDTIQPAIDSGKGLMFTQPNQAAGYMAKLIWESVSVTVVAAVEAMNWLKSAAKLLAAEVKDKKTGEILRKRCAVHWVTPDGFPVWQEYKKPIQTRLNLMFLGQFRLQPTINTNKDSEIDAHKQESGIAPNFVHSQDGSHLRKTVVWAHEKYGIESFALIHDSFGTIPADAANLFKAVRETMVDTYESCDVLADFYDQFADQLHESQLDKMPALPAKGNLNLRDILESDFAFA

Compound	IVT yield of mRNA relative to ^7mG(3′OMe)pppA(2′OMe)pG (T7 RNA polymerase)	luciferase activity of mRNA capped with the compound (HeLa cells; 100 ng mRNA per well, 6 to 24 hours after transfection, compared with mRNA capped with ^7mG(3′OMe)pppA(2′OMe)pG, FIG. 5)	residual rate of protein expressed by capped mRNA (HeLa cells; 24 hours after transfection, inferred, compared with ^7mG(3′OMe)pppA(2′OMe)pG, FIG. 6)
CO[C@@H]1[C@H](OP(=O)(O)OC[C@H]2O[C@@H](n3cnc4c(=O)[nH]c(N)nc43)[C@H](O)[C@@H]2O)[C@@H](COP(=O)(O)OP(=O)(O)OP(=O)(O)OC[C@H]2O[C@@H](n3c[n+](C)c4c(=O)[nH]c(N)nc43)[C@H](OC(=O)C(C)(C)C)[C@@H]2OC(=O)C(C)(C)C)O[C@H]1n1cnc2c(N)ncnc21.[Na+].[Na+].[Na+] [Example 15, ^7mG(2′,3′ Pivaloyl)pppA(2′ OMe)pG]	almost the same yield	–	–
^7mG(2′ or 3′monopivaloyl)pppA(2′OMe)pG [Example 16]	almost the same yield	higher luciferase activity	higher
